By MIC is commonly meant the lowest concentration that inhibits growth of the organism. A high value points to a less susceptible organism. Broadly, the Kd is a measure of binding affinity in units of concentration.

Starred links: 1 amine or outer side, 2 acyl side, 3 side chain; linkers in the order of their positions; H or OH if unused. Positions of bridges follow the written chain, without caps; N, C: chain ends. Non-standard residues stand in square brackets, D forms with d. Residues, ends and D or L forms follow the SMILES beside them. X1 = CCCCC[C@H](CC(=O)[*:1])O[*:2]; GABA = NCCCC(=O)O Where only a bound is given, the exact number is not on record here.

A short description of test [1]: Isothermal titration calorimetry, DOPC liposomes containing lipid II. Format: binding. Here is the method: (§1) For MK and UQ binding, a 1:1 mixture of 1,2-dioleoyl-sn-glycero-3-phosphocholine (DOPC) and 1,2-dioleoyl-sn-glycero-3-phospho-rac-(1-glycerol) (DOPG) containing either 1.25 mol % MK4 or UQ10 was dissolved in chloroform. A lipid film was generated by drying this material under a stream of nitrogen followed by 2 h of vacuum drying. The resulting film was hydrated using 10 mM HEPES (pH 7.5) with 100 mM NaCl to give a final total lipid concentration of 5 mM. Using an Avanti Mini Extruder, this suspension was passed through a 100 nm polycarbonate filter 10 times. For ITC the sample cell was filled with 400 μL of 25 μM MBA prepared in 10 mM HEPES buffer. The syringe (150 μL) was loaded with a 5 mM lipid suspension with 1.25 mol % MK4 or UQ10. For lipid II binding, 10 mM DOPC containing 1 mol % lipid II was dissolved in chloroform. The resulting film was hydrated using 50 mM Tris (pH 7.5) with 100 mM NaCl and passed through a 100 nm polycarbonate filter 10 times. For ITC the sample cell was filled with 400 μL of 25 μM an MBA prepared in 50 mM Tris buffer. The syringe (150 μL) was loaded with a 10 mM DOPC suspension with 1 mol % lipid II. Data were collected by using an Auto-iTC200 (Malvern Panalytical) and processed by Affinimeter software using the “one binding site” model.

Test [2] can be described thus: Isothermal titration calorimetry, DOPC:DOPG liposomes containing MK. The test is classed as binding. On the procedure:
as §1

The subject of test [3] is methicillin-resistant S. aureus COL. Put plainly: Mouse peritonitis-sepsis model. The conditions noted are these: single subcutaneous dose 1 h after infection.
Procedure: Female outbred Swiss Webster mice were used in all experiments. S. aureus COL was grown in Mueller-Hinton Broth at 37° C. overnight and diluted with 7% type II porcine stomach mucin supplemented with 0.2 mM FeNH4-citrate. Cultures were diluted to provide a challenge inoculum of ˜5×10^8 CFU in 0.2 mL. 0.2 mL of the challenge inoculum was administered via intraperitoneal injection.
Test [4] deals with Mycobacterium tuberculosis.
Test [5] has as its system Gram-positive bacteria (Bacillus subtilis, Staphylococcus aureus and Staphylococcus epidermidis). Put plainly: Antibacterial activity against Gram-positive bacteria (broth micro-dilution). Format: cell-based. Here is the method: (§2) All antimicrobial assays were run in 96-well microtiter plates using a broth micro-dilution method. Diluted overnight cultures were used in all assays. For yeast strains, overnight cultures were diluted 2000-fold in YPD broth. For Enterococcus faecium and Staphylococcus aureus, overnight cultures were diluted 1000- and 10,000-fold in LB broth, respectively. For Streptococcus strains, overnight cultures were diluted 5,000-fold in Brain Heart Infusion (BHI) broth. For other bacteria, overnight cultures were diluted 5,000-fold in LB broth. 100 μL of each diluted culture was mixed with 100 μL of LB broth containing a syn-BNP at 2-fold serial dilutions across a 96-well microtiter plate row. The final concentration of each compound ranged from 64 to 0.25 μg/mL. Plates were incubated at 37° C. (bacteria) or 30° C. (yeast) for 16 h. The lowest concentration that inhibited visible microbial growth was recorded as the minimum inhibition concentration (MIC). All MIC assays were done in duplicate (n=2).

Test [6] concerns Mtb mc2 6206/mLux in J774A.1 mouse macrophages. The test is classed as cell-based, Mycobacterium tuberculosis.
Test [7] concerns Enterococcus or Streptococcus strains. The test is described as follows: MIC against all eight Enterococcus or Streptococcus strains. The test is classed as cell-based. The settings on record: MK-producing and MK-deficient. Here is the method: as §2
Test [8] relates to S. aureus tn:hemB. Put plainly: MIC against S. aureus hemB transposon insertion mutant. The test is classed as cell-based, Staphylococcus aureus.
Procedure: All antimicrobial assays were run in 96-well microtiter plates using a broth micro-dilution method. Diluted overnight cultures were used in all assays. […] For Enterococcus faecium and Staphylococcus aureus, overnight cultures were diluted 1000- and 10,000-fold in LB broth, respectively. […] For other bacteria, overnight cultures were diluted 5,000-fold in LB broth. 100 μL of each diluted culture was mixed with 100 μL of LB broth containing a syn-BNP at 2-fold serial dilutions across a 96-well microtiter plate row. The final concentration of each compound ranged from 64 to 0.25 μg/mL. Plates were incubated at 37° C. (bacteria) or 30° C. (yeast) for 16 h. The lowest concentration that inhibited visible microbial growth was recorded as the minimum inhibition concentration (MIC). All MIC assays were done in duplicate (n=2).
Test [9] has as its system Mycobacterium smegmatis. The settings on record: reported in literature; cited from earlier work.

As to `CCCCC[C@@H]1CC(=O)N[C@@H](C(C)C)C(=O)N[C@H](CCCNC(=N)N)C(=O)N[C@@H](C(C)C)C(=O)NCC(=O)N2CCC[C@H]2C(=O)N[C@@H](CC(C)C)C(=O)N[C@H](CCCNC(=N)N)C(=O)N[C@@H](CCC(=O)O)C(=O)N[C@H](Cc2ccc(O)cc2)C(=O)N[C@H](C)C(=O)NCCCC(=O)O1` [MBA3 D-Trp-10 to D-Ala] (V[dR]VGPL[dR]E[dY][dA][GABA]; linker N-C via X1), in test [1], the “lipid II binding” value is listed as “no lipid II binding or similarly low lipid II binding affinities”. The “ability to interact with MK” value in test [2] is given as “completely abrogated”.

For `CCCCC[C@@H]1CC(=O)N[C@@H](C(C)C)C(=O)N[C@H](CCCNC(=N)N)C(=O)N[C@@H](C(C)C)C(=O)N[C@@H](C)C(=O)N2CCC[C@H]2C(=O)N[C@@H](CC(C)C)C(=O)N[C@H](CCCNC(=N)N)C(=O)N[C@@H](CCC(=O)O)C(=O)N[C@H](Cc2ccc(O)cc2)C(=O)N[C@H](Cc2c[nH]c3ccccc23)C(=O)NCCCC(=O)O1` [MBA3 Gly-4 to L-Ala] (V[dR]VAPL[dR]E[dY][dW][GABA]; linker N-C via X1), the “ability to interact with MK” value in [2] was “completely abrogated”.

`CCCCC[C@@H]1CC(=O)N[C@@H](C(C)C)C(=O)N[C@H](CCCNC(=N)N)C(=O)N[C@@H](C(C)C)C(=O)NCC(=O)N2CCC[C@H]2C(=O)N[C@@H](CC(C)C)C(=O)N[C@H](CCCNC(=N)N)C(=O)N[C@@H](CCC(=O)O)C(=O)N[C@H](Cc2ccc(O)cc2)C(=O)N[C@H](Cc2c[nH]c3ccccc23)C(=O)NCCCC(=O)O1` [MBA3, metameb] (V[dR]VGPL[dR]E[dY][dW][GABA]; linker N-C via X1): in test [3] (5, 10 and 30 mg/kg), the “mortality of infected mice compared to vehicle” value is “dramatically decreased”. For the same molecule, the “minimal dose required for 100% survival” value in [3] was 10 mg/kg. Also, the “activity against Mtb” value in test [4] is on record as “active”. The molecule further registered a minimum inhibitory concentration (MIC) in [4] (lowest MIC against MDR Mtb) not below 0.078 µg/mL. Besides, in test [1], the “lipid II binding” value is “no lipid II binding or similarly low lipid II binding affinities”. Moreover, the “antibacterial activity against Gram-positive bacteria” value in test [5] is “good Gram-positive antibiosis”. Also, in test [6], the “relative potency in macrophage assay” value was “most potent”.

On to `CCCCC[C@@H]1CC(=O)N[C@@H](C(C)C)C(=O)N[C@H](CCC(=O)O)C(=O)N[C@@H](CCCNC(=N)N)C(=O)NCC(=O)N2CCC[C@H]2C(=O)N[C@@H](CC(C)C)C(=O)N[C@H](CCC(N)=O)C(=O)N[C@@H](CCC(=O)O)C(=O)N[C@H](Cc2ccc(O)cc2)C(=O)N[C@H](Cc2c[nH]c3ccccc23)C(=O)NCCCC(=O)O1` [MBA4, alcameb] (V[dE]RGPL[dQ]E[dY][dW][GABA]; linker N-C via X1), for which the “antibacterial activity against Gram-positive bacteria” value in test [5] was “good Gram-positive antibiosis”.

For the molecule `CN[C@H](CC(C)C)C(=O)N[C@H]1C(=O)N[C@@H](CC(N)=O)C(=O)N[C@H]2C(=O)N[C@H]3C(=O)N[C@H](C(=O)N[C@H](C(=O)O)c4cc(O)cc(O)c4-c4cc3ccc4O)[C@H](O)c3ccc(c(Cl)c3)Oc3cc2cc(c3O[C@@H]2O[C@H](CO)[C@@H](O)[C@H](O)[C@H]2O[C@H]2C[C@](C)(N)[C@H](O)[C@H](C)O2)Oc2ccc(cc2Cl)[C@H]1O` [vancomycin], the antibacterial activity result in [7] is reported as “active”. For the same molecule, the “MIC difference between wild-type S. aureus and tn:hemB strain” value in test [8] is reported as “no significant differences in MIC”.

Take lysobactin: the antibacterial activity result in [7] is recorded as “active”. Besides, the “MIC difference between wild-type S. aureus and tn:hemB strain” value in test [8] was “no significant differences in MIC”.

As to lysocin E, in test [9], the “activity against Mycobacterium smegmatis” value is given as “active”.

As to nisin, in test [7], the antibacterial activity entry is listed as “active”. The “MIC difference between wild-type S. aureus and tn:hemB strain” value in [8] is “no significant differences in MIC”. Moreover, the Kd in test [1] (read-out: lipid II binding affinity Kd) was 70 nM.

For the molecule ramoplanin, in test [7], the antibacterial activity result is reported as “active”. Also, in test [8], the “MIC difference between wild-type S. aureus and tn:hemB strain” value is on record as “no significant differences in MIC”.
